Experimental data published in patent US10913757B2, “Hydroxycinnamic derivatives, methods and uses thereof” (UNIVERSIDADE DO PORTO, priority 2016, dated 2021).

Columns and labels:
[1] = Redox properties by differential pulse and cyclic voltammetry; format: physicochemical; details: for reversibility of the oxidation reaction: cyclic voltammetry, physiological pH; for Ep (redox potential): physiological pH (7.4), voltammetry
Procedure, shortened: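 Compounds were run at 0.1 mM final (from ethanol stock) in phosphate supporting electrolyte at room temperature, using a glassy carbon working, Pt counter and Ag/AgCl reference electrode. CV was at 50 mV s^−1; DPV used a 4 mV step, 50 mV pulse amplitude and 8 mV s^−1. Ep is the oxidation peak potential.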

[2] = tested on: rat liver mitochondria (RLM); assay: Mitochondrial respiration of isolated RLM (Clark-type oxygen electrode); format: biochemical; details: for effect on state 3 respiration: all tested concentrations (2.5-10 μM), FIG. 6B-H
Procedure, shortened: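 O2 uptake was recorded with a Clark electrode through state 2, ADP-driven state 3, state 4, oligomycin (2 μg/ml) and FCCP (1 μM). RCR and ADP/O were calculated.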

[3] = tested on: rat liver mitochondria (RLM); assay: Mitochondrial transmembrane electric potential (ΔΨ) of RLM, safranine fluorescence; format: biochemical; details: for ΔΨ in succinate-energized mitochondria: AntiOxCIN6 above 5 μM, AntiOxCIN7 10 μM
Procedure, shortened: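 Rat liver mitochondria; ΔΨ by safranine fluorescence, compounds up to 10 μM, FCCP 1 μM added at end to depolarize. ΔΨ derived from a valinomycin K^+ calibration curve in sucrose/phosphate/Tris pH 7.4 medium; repolarization and lag phase after ADP phosphorylation recorded; means±SEM, n=5.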

CS(=O)(=O)[O-].O=C(/C=C/c1ccc(O)c(O)c1)NCCCCCCCCCC[P+](c1ccccc1)(c1ccccc1)c1ccccc1 [AntiOxCIN6, (E)-(10-(3-(3,4-dihydroxyphenyl)acrylamido)decyl)triphenylphosphonium methanesulfonate]
reversibility of the oxidation reaction [1]: reversible reaction
Ep (redox potential) ([1]; listed as AntiOxClN6, methanesulfonate): 0.174 V
effect on state 3 respiration [2]: increase
ADP/O ([2]; glutamate/malate, 2.5 μM): 2.5 ± 0.1
RCR (respiratory control ratio, state 3/state 4) ([2]; glutamate/malate, 2.5 μM): 3.1 ± 0.3
ADP/O ([2]; glutamate/malate, 5 μM): 2.5 ± 0.2
RCR (respiratory control ratio, state 3/state 4) ([2]; glutamate/malate, 5 μM): 3.3 ± 0.2
ADP/O ([2]; glutamate/malate, 10 μM): 2.3 ± 0.1
RCR (respiratory control ratio, state 3/state 4) ([2]; glutamate/malate, 10 μM): 2.6 ± 0.1
ADP/O ([2]; succinate, 2.5 μM): 1.5 ± 0.1
RCR (respiratory control ratio, state 3/state 4) ([2]; succinate, 2.5 μM): 3.7 ± 0.6
ADP/O ([2]; succinate, 5 μM): 1.5 ± 0.1
RCR (respiratory control ratio, state 3/state 4) ([2]; succinate, 5 μM): 3.2 ± 0.3
ADP/O ([2]; succinate, 10 μM): 1.6 ± 0.11
RCR (respiratory control ratio, state 3/state 4) ([2]; succinate, 10 μM): 2.6 ± 0.3
initial slight hyperpolarization ([3]; 2.5 μM): 10 mV
ΔΨ in succinate-energized mitochondria [3]: significant decrease of ΔΨ
ADP-induced depolarization (ΔΨ in - mV) ([3]; glutamate/malate, 2.5 μM): 202.5 ± 5.7 mV
Lag Phase ([3]; glutamate/malate, 2.5 μM): 73.2 ± 8.8 s
Maximum potential (ΔΨ in - mV) ([3]; glutamate/malate, 2.5 μM): 237.9 ± 5.9 mV
Repolarization Potential (ΔΨ in - mV) ([3]; glutamate/malate, 2.5 μM): 233.3 ± 6.5 mV
ADP-induced depolarization (ΔΨ in - mV) ([3]; glutamate/malate, 5 μM): 197.9 ± 5.0 mV
Lag Phase ([3]; glutamate/malate, 5 μM): 75.2 ± 12.5 s
Maximum potential (ΔΨ in - mV) ([3]; glutamate/malate, 5 μM): 227.5 ± 6.5 mV
Repolarization Potential (ΔΨ in - mV) ([3]; glutamate/malate, 5 μM): 220.7 ± 6.2 mV
ADP-induced depolarization (ΔΨ in - mV) ([3]; glutamate/malate, 10 μM): 174.2 ± 16.8 mV
Lag Phase ([3]; glutamate/malate, 10 μM): 47.8 ± 8.7 s
Maximum potential (ΔΨ in - mV) ([3]; glutamate/malate, 10 μM): 200.5 ± 16.80 mV
Repolarization Potential (ΔΨ in - mV) ([3]; glutamate/malate, 10 μM): 185.3 ± 20.8 mV
ADP-induced depolarization (ΔΨ in - mV) ([3]; succinate, 2.5 μM): 166.8 ± 6.1 mV
Lag Phase ([3]; succinate, 2.5 μM): 77.8 ± 11.2 s
Maximum potential (ΔΨ in - mV) ([3]; succinate, 2.5 μM): 181.9 ± 6.2 mV
Repolarization Potential (ΔΨ in - mV) ([3]; succinate, 2.5 μM): 177.7 ± 4.5 mV
ADP-induced depolarization (ΔΨ in - mV) ([3]; succinate, 5 μM): 167.1 ± 5.7 mV
Lag Phase ([3]; succinate, 5 μM): 83.4 ± 11.5 s
Maximum potential (ΔΨ in - mV) ([3]; succinate, 5 μM): 178.3 ± 4.7 mV
Repolarization Potential (ΔΨ in - mV) ([3]; succinate, 5 μM): 178.1 ± 5.1 mV
ADP-induced depolarization (ΔΨ in - mV) ([3]; succinate, 10 μM): 143.6 ± 11.0 mV
Lag Phase ([3]; succinate, 10 μM): 62.2 ± 11.2 s
Maximum potential (ΔΨ in - mV) ([3]; succinate, 10 μM): 151.7 ± 9.3 mV
Repolarization Potential (ΔΨ in - mV) ([3]; succinate, 10 μM): 149.0 ± 11.2 mV

CS(=O)(=O)[O-].O=C(/C=C/c1cc(O)c(O)c(O)c1)NCCCCCCCCCC[P+](c1ccccc1)(c1ccccc1)c1ccccc1 [AntiOxCIN7, (E)-(10-(3-(3,4,5-trihydroxyphenyl)acrylamido)decyl)triphenylphosphonium methanesulfonate]
reversibility of the oxidation reaction [1]: irreversible oxidation reaction
Ep (redox potential) ([1]; listed as AntiOxClN7, methanesulfonate): 0.057 V
effect on state 3 respiration [2]: increase
ADP/O ([2]; glutamate/malate, 2.5 μM): 2.8 ± 0.3
RCR (respiratory control ratio, state 3/state 4) ([2]; glutamate/malate, 2.5 μM): 3.6 ± 0.2
ADP/O ([2]; glutamate/malate, 5 μM): 2.4 ± 0.1
RCR (respiratory control ratio, state 3/state 4) ([2]; glutamate/malate, 5 μM): 3.5 ± 0.3
ADP/O ([2]; glutamate/malate, 10 μM): 2.6 ± 0.1
RCR (respiratory control ratio, state 3/state 4) ([2]; glutamate/malate, 10 μM): 3.3 ± 0.3
ADP/O ([2]; succinate, 2.5 μM): 1.8 ± 0.2
RCR (respiratory control ratio, state 3/state 4) ([2]; succinate, 2.5 μM): 4.1 ± 0.4
ADP/O ([2]; succinate, 5 μM): 1.8 ± 0.2
RCR (respiratory control ratio, state 3/state 4) ([2]; succinate, 5 μM): 3.1 ± 0.2
ADP/O ([2]; succinate, 10 μM): 1.7 ± 0.2
RCR (respiratory control ratio, state 3/state 4) ([2]; succinate, 10 μM): 3.7 ± 0.3
initial slight hyperpolarization ([3]; 2.5 μM): 25 mV
ΔΨ in succinate-energized mitochondria [3]: significant decrease of ΔΨ
ADP-induced depolarization (ΔΨ in - mV) ([3]; glutamate/malate, 2.5 μM): 212.2 ± 7.9 mV
Lag Phase ([3]; glutamate/malate, 2.5 μM): 73.4 ± 8.4 s
Maximum potential (ΔΨ in - mV) ([3]; glutamate/malate, 2.5 μM): 251.8 ± 8.7 mV
Repolarization Potential (ΔΨ in - mV) ([3]; glutamate/malate, 2.5 μM): 248.3 ± 8.3 mV
ADP-induced depolarization (ΔΨ in - mV) ([3]; glutamate/malate, 5 μM): 212.6 ± 3.2 mV
Lag Phase ([3]; glutamate/malate, 5 μM): 71.0 ± 10.7 s
Maximum potential (ΔΨ in - mV) ([3]; glutamate/malate, 5 μM): 248.1 ± 3.3 mV
Repolarization Potential (ΔΨ in - mV) ([3]; glutamate/malate, 5 μM): 243.5 ± 5.0 mV
ADP-induced depolarization (ΔΨ in - mV) ([3]; glutamate/malate, 10 μM): 197.1 ± 11.8 mV
Lag Phase ([3]; glutamate/malate, 10 μM): 58.6 ± 5.4 s
Maximum potential (ΔΨ in - mV) ([3]; glutamate/malate, 10 μM): 232.1 ± 9.2 mV
Repolarization Potential (ΔΨ in - mV) ([3]; glutamate/malate, 10 μM): 212.6 ± 18.4 mV
ADP-induced depolarization (ΔΨ in - mV) ([3]; succinate, 2.5 μM): 183.8 ± 6.0 mV
Lag Phase ([3]; succinate, 2.5 μM): 80.0 ± 14.9 s
Maximum potential (ΔΨ in - mV) ([3]; succinate, 2.5 μM): 205.3 ± 7.3 mV
Repolarization Potential (ΔΨ in - mV) ([3]; succinate, 2.5 μM): 199.4 ± 7.1 mV
ADP-induced depolarization (ΔΨ in - mV) ([3]; succinate, 5 μM): 176.2 ± 8.7 mV
Lag Phase ([3]; succinate, 5 μM): 76.0 ± 9.6 s
Maximum potential (ΔΨ in - mV) ([3]; succinate, 5 μM): 191.1 ± 9.0 mV
Repolarization Potential (ΔΨ in - mV) ([3]; succinate, 5 μM): 186.8 ± 7.5 mV
ADP-induced depolarization (ΔΨ in - mV) ([3]; succinate, 10 μM): 163.6 ± 3.2 mV
Lag Phase ([3]; succinate, 10 μM): 65.0 ± 8.7 s
Maximum potential (ΔΨ in - mV) ([3]; succinate, 10 μM): 176.9 ± 3.1 mV
Repolarization Potential (ΔΨ in - mV) ([3]; succinate, 10 μM): 171.0 ± 5.0 mV
